Laboratory results: patent publication US9765091B2, “Tetrahydropyrazolo [3,4-b] azepine derivatives and their use as allosteric modulators of metabotropic glutamate receptors” (Addex Pharma S.A., priority 2010, dated 2017)
pEC50: −log10 of the molar value.

Biological target: T1, human mGluR4 (Homo sapiens, UniProt Q14833)
T1 construct: expressed in transfected cells
Test: Fluorescent cell based Ca2+ mobilization assay (FLIPR) on HEK-293 cells expressing human mGluR4
Conditions: positive allosteric modulation, HEK-293 cells expressing hmGluR4, stimulated by EC25 glutamate; mean of at least three independent experiments in duplicate; read-out: Ca^2+ Flux* (mean EC50)
Source text: mGluR4 Assay on HEK-Expressing Human mGluR4
The compounds of the present invention are positive allosteric modulators of mGluR4 receptor. Their activity was examined on recombinant human mGluR4a receptors by detecting changes in intracellular Ca^2+ concentration, using the fluorescent Ca^2+-sensitive dye Fluo4-(AM) and a Fluorometric Imaging Plate Reader (FLIPR, Molecular Devices, Sunnyvale, Calif.).
The cDNA encoding the human metabotropic glutamate receptor (hmGluR4), (accession number NM_000841.1, NCBI Nucleotide database browser), was subcloned into an expression vector containing also the hygromycin resistance gene. In parallel, the cDNA encoding a G protein allowing redirection of the activation signal to intracellular calcium flux was subcloned into a different expression vector containing also the puromycin resistance gene. Transfection of both these vectors into HEK293 cells with PolyFect reagent (Qiagen) according to supplier's protocol, and hygromycin and puromycin treatment allowed selection of antibiotic resistant cells which had integrated stably one or more copies of the plasmids. Positive cellular clones expressing hmGluR4 were identified in a functional assay measuring changes in calcium fluxes in response to glutamate or selective known mGluR4 orthosteric agonists and antagonists. HEK-293 cells expressing hmGluR4 were maintained in media containing DMEM, dialyzed Fetal Calf Serum (10%), Glutamax™ (2 mM), Penicillin (100 units/mL), Streptomycin (100 μg/mL), Geneticin (100 μg/mL) and Hygromycin-B (40 μg/mL) and puromycin (1 μg/mL) at 37° C./5% CO2.
Human mGluR4 HEK-293 cells were plated out 24 hours prior to FLIPR^384 assay in black-walled, clear-bottomed, poly-L-ornithine-coated 384-well plates at a density of 25,000 cells/well in a glutamine/glutamate free DMEM medium containing foetal bovine serum (10%), penicillin (100 units/mL) and streptomycin (100 μg/mL) at 37° C./5% CO2.
On the day of the assay, the medium was aspirated and the cells were loaded with a 3 μM solution of Fluo4-AM (LuBioScience, Lucerne, Switzerland) in 0.03% pluronic acid. After 1 hour at 37° C./5% CO2, the non incorporated dye was removed by washing cell plate with the assay buffer and the cells were left in the dark at room temperature for […] before testing. All assays were performed in a pH 7.4 buffered-solution containing 20 mM HEPES, 143 mM NaCl, 6 mM KCl, 1 mM MgSO4, 1 mM CaCl2, 0.125 mM sulfapyrazone and 0.1% glucose.
After 10 s of basal fluorescence recording, various concentrations of the compounds of the invention were added to the cells. Changes in fluorescence levels were first monitored for 180 s in order to detect any agonist activity of the compounds. Then the cells were stimulated by an EC25 glutamate concentration for an additional 110 s in order to measure enhancing activities of the compounds of the invention. EC25 glutamate concentration is the concentration giving 25% of the maximal glutamate response.
The concentration-response curves of representative compounds of the present invention were generated using the Prism GraphPad software (Graph Pad Inc, San Diego, USA). The curves were fitted to a four-parameter logistic equation: (Y=Bottom+(Top−Bottom)/(1+10^((Log EC50−X)*Hill Slope) allowing the determination of EC50 values.
The Table 4 below represents the mean EC50 obtained from at least three independent experiments of selected molecules performed in duplicate.

T1 sequence (Q14833 33-912): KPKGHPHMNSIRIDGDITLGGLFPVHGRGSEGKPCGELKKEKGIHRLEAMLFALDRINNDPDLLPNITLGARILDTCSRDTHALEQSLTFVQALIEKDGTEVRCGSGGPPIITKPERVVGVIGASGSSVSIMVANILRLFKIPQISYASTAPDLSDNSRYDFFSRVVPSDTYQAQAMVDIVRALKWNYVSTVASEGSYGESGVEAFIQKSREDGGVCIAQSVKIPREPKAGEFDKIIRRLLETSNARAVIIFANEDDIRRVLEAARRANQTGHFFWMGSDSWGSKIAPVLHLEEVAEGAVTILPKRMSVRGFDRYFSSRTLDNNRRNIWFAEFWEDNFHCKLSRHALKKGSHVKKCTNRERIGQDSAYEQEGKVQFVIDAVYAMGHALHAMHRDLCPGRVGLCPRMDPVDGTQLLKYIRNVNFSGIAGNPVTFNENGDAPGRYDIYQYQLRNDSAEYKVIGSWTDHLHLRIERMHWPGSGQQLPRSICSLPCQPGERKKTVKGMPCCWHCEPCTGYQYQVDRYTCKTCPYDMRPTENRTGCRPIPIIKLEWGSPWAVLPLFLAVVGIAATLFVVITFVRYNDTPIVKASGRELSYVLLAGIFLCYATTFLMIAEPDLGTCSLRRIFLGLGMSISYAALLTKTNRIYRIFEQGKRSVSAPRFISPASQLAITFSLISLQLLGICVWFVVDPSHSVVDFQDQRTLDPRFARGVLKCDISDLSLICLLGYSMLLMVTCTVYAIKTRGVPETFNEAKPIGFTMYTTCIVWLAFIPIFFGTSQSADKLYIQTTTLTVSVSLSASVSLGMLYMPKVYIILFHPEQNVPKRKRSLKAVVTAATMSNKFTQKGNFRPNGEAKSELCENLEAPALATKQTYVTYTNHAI

Row | Compound | pEC50
1 | CN1CCc2sc(Nc3ncc(F)cn3)nc2-c2c[nH]nc21 [Compound 1-2, N-(5-Fluoropyrimidin-2-yl)-6-methyl-4,5,6,8-tetrahydropyrazolo[3,4-b]thiazolo[4,5-d]azepin-2-amine] | 6.00 to 7.00
2 | CCN1CCc2sc(Nc3nccc(C)n3)nc2-c2c[nH]nc21 [Compound 1-3, 6-Ethyl-N-(4-methylpyrimidin-2-yl)-4,5,6,8-tetrahydropyrazolo[3,4-b]thiazolo[4,5-d]azepin-2-amine] | > 7.00
3 | Fc1cnc(Nc2nc3c(s2)CCN(CC2CC2)c2n[nH]cc2-3)nc1 [Compound 1-4, 6-(Cyclopropylmethyl)-N-(5-fluoropyrimidin-2-yl)-4,5,6,8-tetrahydropyrazolo[3,4-b]thiazolo[4,5-d]azepin-2-amine] | > 7.00
4 | CC(C)N1CCc2sc(Nc3ncc(F)cn3)nc2-c2c[nH]nc21 [Compound 1-6, N-(5-Fluoropyrimidin-2-yl)-6-isopropyl-4,5,6,8-tetrahydropyrazolo[3,4-b]thiazolo[4,5-d]azepin-2-amine] | > 7.00
5 | COCCN1CCc2sc(Nc3nccc(C)n3)nc2-c2c[nH]nc21 [Compound 1-7, 6-(2-Methoxyethyl)-N-(4-methylpyrimidin-2-yl)-4,5,6,8-tetrahydropyrazolo[3,4-b]thiazolo[4,5-d]azepin-2-amine] | > 7.00
6 | Cc1nc(Nc2nc3c(s2)CCN(C)c2n[nH]cc2-3)ncc1F [Compound 1-9, N-(5-Fluoro-4-methylpyrimidin-2-yl)-6-methyl-4,5,6,8-tetrahydropyrazolo[3,4-b]thiazolo[4,5-d]azepin-2-amine] | 6.00 to 7.00
7 | Cc1ccnc(Nc2nc3c(s2)CCN(CC2CCCO2)c2n[nH]cc2-3)n1 (stereo not drawn) [Compound 1-10, N-(4-Methylpyrimidin-2-yl)-6-((tetrahydrofuran-2-yl)methyl)-4,5,6,8-tetrahydropyrazolo[3,4-b]thiazolo[4,5-d]azepin-2-amine] | > 7.00
8 | COCCN1CCc2sc(Nc3ncc(F)cn3)nc2-c2c[nH]nc21 [Compound 1-12, N-(5-Fluoropyrimidin-2-yl)-6-(2-methoxyethyl)-4,5,6,8-tetrahydropyrazolo[3,4-b]thiazolo[4,5-d]azepin-2-amine] | > 7.00
9 | COCCN1CCc2sc(Nc3cccc(C)n3)nc2-c2c[nH]nc21 [Compound 1-13, 6-(2-Methoxyethyl)-N-(6-methylpyridin-2-yl)-4,5,6,8-tetrahydropyrazolo[3,4-b]thiazolo[4,5-d]azepin-2-amine] | > 7.00
10 | Cc1ccnc(Nc2nc3c(s2)CCN(Cc2ccn(C)n2)c2n[nH]cc2-3)n1 [Compound 1-16, 6-((1-Methyl-1H-pyrazol-3-yl)methyl)-N-(4-methylpyrimidin-2-yl)-4,5,6,8-tetrahydropyrazolo[3,4-b]thiazolo[4,5-d]azepin-2-amine] | > 7.00
11 | Cc1ccnc(Nc2nc3c(s2)CCN(CC(=O)N(C)C)c2n[nH]cc2-3)n1 [Compound 1-17, N,N-Dimethyl-2-(2-(4-methylpyrimidin-2-ylamino)-4,5-dihydropyrazolo[3,4-b]thiazolo[4,5-d]azepin-6(8H)-yl)acetamide] | 6.00 to 7.00
12 | COCCN1CCc2sc(Nc3nccc(OC)n3)nc2-c2c[nH]nc21 [Compound 1-18, 6-(2-Methoxyethyl)-N-(4-methoxypyrimidin-2-yl)-4,5,6,8-tetrahydropyrazolo[3,4-b]thiazolo[4,5-d]azepin-2-amine] | > 7.00

Next, values leading:

Row | pEC50 | Compound
13 | > 7.00 | COCCN1CCc2sc(Nc3nsc(C)n3)nc2-c2c[nH]nc21 [Compound 1-19, 6-(2-Methoxyethyl)-N-(5-methyl-1,2,4-thiadiazol-3-yl)-4,5,6,8-tetrahydropyrazolo[3,4-b]thiazolo[4,5-d]azepin-2-amine]
14 | 6.00 to 7.00 | OCCN1CCc2sc(Nc3ncc(F)cn3)nc2-c2c[nH]nc21 [Compound 1-20, 2-(2-(5-Fluoropyrimidin-2-ylamino)-4,5-dihydropyrazolo[3,4-b]thiazolo[4,5-d]azepin-6(8H)-yl)ethanol]
15 | > 7.00 | COCCN1CCc2sc(Nc3cccc(N)n3)nc2-c2c[nH]nc21 [Compound 1-21, N^2-(6-(2-Methoxyethyl)-4,5,6,8-tetrahydropyrazolo[3,4-b]thiazolo[4,5-d]azepin-2-yl) pyridine-2,6-diamine]
16 | > 7.00 | Cc1cc(CN2CCc3sc(Nc4ncc(F)cn4)nc3-c3c[nH]nc32)no1 [Compound 1-22, N-(5-Fluoropyrimidin-2-yl)-6-((5-methylisoxazol-3-yl)methyl)-4,5,6,8-tetrahydropyrazolo[3,4-b]thiazolo[4,5-d]azepin-2-amine]
17 | > 7.00 | Fc1cnc(Nc2nc3c(s2)CCN(Cc2ccccn2)c2n[nH]cc2-3)nc1 [Compound 1-26, N-(5-Fluoropyrimidin-2-yl)-6-(pyridin-2-ylmethyl)-4,5,6,8-tetrahydropyrazolo[3,4-b]thiazolo[4,5-d]azepin-2-amine]
18 | > 7.00 | Fc1cnc(Nc2nc3c(s2)CCN(Cc2ccncc2)c2n[nH]cc2-3)nc1 [Compound 1-27, N-(5-Fluoropyrimidin-2-yl)-6-(pyridin-4-ylmethyl)-4,5,6,8-tetrahydropyrazolo[3,4-b]thiazolo[4,5-d]azepin-2-amine]
19 | > 7.00 | CS(=O)(=O)CCN1CCc2sc(Nc3ncc(F)cn3)nc2-c2c[nH]nc21 [Compound 1-28, N-(5-Fluoropyrimidin-2-yl)-6-(2-(methylsulfonyl)ethyl)-4,5,6,8-tetrahydropyrazolo[3,4-b]thiazolo[4,5-d]azepin-2-amine]
20 | 6.00 to 7.00 | Fc1cnc(Nc2nc3c(s2)CCN(CCC(F)(F)F)c2n[nH]cc2-3)nc1 [Compound 1-29, N-(5-Fluoropyrimidin-2-yl)-6-(3,3,3-trifluoropropyl)-4,5,6,8-tetrahydropyrazolo[3,4-b]thiazolo[4,5-d]azepin-2-amine]
21 | 6.00 to 7.00 | Fc1cnc(Nc2nc3c(s2)CCN(CC(F)(F)F)c2[nH]ncc2-3)nc1 [Compound 1-30, N-(5-Fluoropyrimidin-2-yl)-6-(2,2,2-trifluoroethyl)-4,5,6,7-tetrahydropyrazolo[3,4-b]thiazolo[4,5-d]azepin-2-amine]
22 | > 7.00 | Fc1cnc(Nc2nc3c(s2)CCN(C2CCOC2)c2n[nH]cc2-3)nc1 (stereo not drawn) [Compound 1-31, N-(5-Fluoropyrimidin-2-yl)-6-(tetrahydrofuran-3-yl)-4,5,6,8-tetrahydropyrazolo[3,4-b]thiazolo[4,5-d]azepin-2-amine]
23 | 5.00 to 6.00 | CNCCN1CCc2sc(Nc3ncc(F)cn3)nc2-c2c[nH]nc21 [Compound 1-32, N-(5-Fluoropyrimidin-2-yl)-6-(2-(methylamino)ethyl)-4,5,6,8-tetrahydropyrazolo[3,4-b]thiazolo[4,5-d]azepin-2-amine]
24 | > 7.00 | COCCCN1CCc2sc(Nc3ncc(F)cn3)nc2-c2c[nH]nc21 [Compound 1-33, N-(5-Fluoropyrimidin-2-yl)-6-(3-methoxypropyl)-4,5,6,8-tetrahydropyrazolo[3,4-b]thiazolo[4,5-d]azepin-2-amine]
25 | > 7.00 | Fc1cnc(Nc2nc3c(s2)CCN(CC2CCCC2)c2n[nH]cc2-3)nc1 [Compound 1-36, 6-(Cyclopentylmethyl)-N-(5-fluoropyrimidin-2-yl)-4,5,6,8-tetrahydropyrazolo[3,4-b]thiazolo[4,5-d]azepin-2-amine]
26 | > 7.00 | Cc1ccnc(Nc2nc3c(s2)CCN(CC2CC2)c2n[nH]cc2-3)n1 [Compound 1-37, 6-(Cyclopropylmethyl)-N-(4-methylpyrimidin-2-yl)-4,5,6,8-tetrahydropyrazolo[3,4-b]thiazolo[4,5-d]azepin-2-amine]
27 | > 7.00 | Fc1cnc(Nc2nc3c(s2)CCN(CC2CCCCC2)c2n[nH]cc2-3)nc1 [Compound 1-38, 6-(Cyclohexylmethyl)-N-(5-fluoropyrimidin-2-yl)-4,5,6,8-tetrahydropyrazolo[3,4-b]thiazolo[4,5-d]azepin-2-amine]
